Molecules are shown by their SMILES.

The text below walks through data of US9790211B2, “5-amino-quinoline-8-carboxamide derivatives as 5-HT4 receptor agonists” (SUVEN LIFE SCIENCES LIMITED, priority 2013, dated 2017).

One assay deals with sAPPα. The assay is described as follows: Estimation of mice brain cortical sAPPα levels (ELISA). The conditions noted are these: s.c., 60 minutes post treatment. Type of assay: in vivo. Here is the method:
The control group of mice received sterile water for injection subcutaneously (s.c.). […] Mice were sacrificed 60 minutes after the drug injection by cervical dislocation, the brains were quickly isolated and the cortex was dissected at −20° C. The cortex was immediately kept on a dry ice and weighed before being stored at −80° C. until Enzyme-linked immunosorbent assay (ELISA) was performed. • 1. Brain tissues were thawed and Tris Buffer Saline containing protease inhibitors (TBS, 4 times by volume) added (0.8 mL/200 mg tissues). • 2. Brain tissue samples were homogenized using glass-Teflon homogenizer at 10 strokes. The resulting homogenates were centrifuged at 15,000 rpm at 4° C. for 60 minutes. • 3. The supernatant was discarded and to the precipitate, 4 times volume (0.8 mL/200 mg tissues) of TBS was added. Again homogenized followed by centrifugation at 15,000 rpm 4° C. for 30 minutes. • 4. From the above centrifuged mixture the supernatant was discarded and 10 times volume of 6M Guanidine-HCl in 50 mM Tris buffer pH: 7.6 (500 μL/50 mg tissues) was added. The resulting solution was sonicated for 5 seconds, 4 times. • 5. Resulting mixture was incubated at the RT for 30 minutes, followed by centrifugation at 15,000 rpm, 4° C. for 30 minutes. From this 5 μL of supernatant solution was taken and diluted with 155 μL of EIA buffer (dilution factor 32). Measurement of sAPPα by ELISA Kit: To investigate the role of an acute treatment of test compound on sAPPα levels, we measured the expression of this protein in homogenates from the cortex of treated and untreated mice by ELISA assay. The entire procedure was followed as described in the ELISA kit manual (Mouse/Rat sAPPα ELISA, Catalog Number: JP27415, […], Hamburg, Germany). Statistical analyses were performed using the Graph Pad Prism (Version 4). Data are Mean±SD of sAPPa levels expressed as percentage of control values (mice which received water for injection). Values were compared between the different groups by using unpaired t test. The significance level was set at *p<0.05; […]; ***<0.001.

For assay [1], the system named is acetylcholine levels in ventral hippocampus. The assay is described as follows: Modulation of acetylcholine from the ventral hippocampus (microdialysis). Type of assay: in vivo, male Wistar rats. The note with it: p.o. The text has this: Male Wistar rats (240-300 gram body weights) were stereotaxically implanted with a microdialysis guide cannula in the ventral hippocampus (AP: −5.2 mm, ML: +5.0 mm, DV: −3.8 mm). Co-ordinates were taken according to Paxinos and Watson (2007) with reference points taken from bregma and vertical from the skull. The rats were allowed to recover individually for five days in a round bottom Plexiglas bowl with free access to feed and water.
One day prior to the microdialysis experiment, rats were connected to a dual quartz lined two-channel liquid swivel (Instech, UK) on a counter balance lever arm, which allowed unrestricted movements of the animal. […]
On the day of study, probe was perfused at a constant flow rate of […] with artificial cerebrospinal fluid (aCSF; NaCl 147 mM, KCl 3.0 mM, MgCl2 1.0 mM, CaCl2. 2H2O 1.3 mM, NaH2PO4.2H2O 0.2 mM and Na2HPO4. 7H2O 1.0 mM, pH 7.2). […] Dialysates were stored below −70° C. until quantitation of acetylcholine.
Acetylcholine in dialysate was quantified in the calibration range of 0.103 nmol-103.497 nmol using LC-MS/MS method.
All microdialysis data were plotted as percent change from mean dialysate basal concentrations with 100% defined as the average of five predose values. The AUC was calculated by trapezoidal rule using WinNonlin (5.0.1 version. Pharsight Corp. CA). […]

Consider `Nc1c(Cl)cc(C(=O)NCC2CCN(CC3CCOCC3)CC2)c2ncccc12.O=C(O)C(O)C(O)C(=O)O` [Example 13, 5-Amino-6-chloro-N-{[1-(tetrahydro-2H-pyran-4-ylmethyl)-4-piperidinyl]methyl} quinoline-8-carboxamide L(+)-tartarate], for which the “increase in the mice brain cortical sAPPα levels” value in the assay with sAPPα (0.3 mg/kg) was 39%; with sAPPα (1.0 mg/kg), 41%; in the assay with sAPPα (3.0 mg/kg), 46%; in the assay with sAPPα (10.0 mg/kg), 66%. For the same compound, the “Area under the curve of acetylcholine change, ventral hippocampus (in words)” value in assay [1] (10.0 mg/kg, vs vehicle, p<0.01) is on record as “significant”. For the same compound, the “acetylcholine levels from the ventral hippocampus (in words)” value in assay [1] (3.0 and 10.0 mg/kg, male Wistar rats) is listed as “dose dependent increase”.
